The subject of this assay is PBMCs from CLL patients. Put plainly: Peptide-induced cell death, PI staining and FACS. It is filed as cell-based, human. As to conditions: relatively high concentrations; data not shown.

The values below come from publication PMC3789174 (Cell Death & Disease, 2013).

As to `Nc1nc(F)nc2c1ncn2[C@@H]1O[C@H](CO)[C@@H](O)[C@@H]1O` [fludarabine], the “cell killing effect on PBMCs isolated from CLL patients” value is given as “only a weak cell killing effect”.
